US7063946B2, “Methods, reagents, kits and apparatus for protein function analysis” (Meso Scale Technologies, LLC., priority 2001, dated 2006)

Columns and labels:
Experiment in all cases: Kinase inhibitor profiling, autophosphorylation
Type in all cases: biochemical
[1] = molecular target: T1, BMX (Homo sapiens, UniProt P51813)
T1 construct: specificity data for proteins generated from a library of eighteen full-length clones; host or cells: rabbit reticulocyte lysate, TnT coupled in vitro transcription/translation (cell-free)
T1 sequence (P51813 1-675): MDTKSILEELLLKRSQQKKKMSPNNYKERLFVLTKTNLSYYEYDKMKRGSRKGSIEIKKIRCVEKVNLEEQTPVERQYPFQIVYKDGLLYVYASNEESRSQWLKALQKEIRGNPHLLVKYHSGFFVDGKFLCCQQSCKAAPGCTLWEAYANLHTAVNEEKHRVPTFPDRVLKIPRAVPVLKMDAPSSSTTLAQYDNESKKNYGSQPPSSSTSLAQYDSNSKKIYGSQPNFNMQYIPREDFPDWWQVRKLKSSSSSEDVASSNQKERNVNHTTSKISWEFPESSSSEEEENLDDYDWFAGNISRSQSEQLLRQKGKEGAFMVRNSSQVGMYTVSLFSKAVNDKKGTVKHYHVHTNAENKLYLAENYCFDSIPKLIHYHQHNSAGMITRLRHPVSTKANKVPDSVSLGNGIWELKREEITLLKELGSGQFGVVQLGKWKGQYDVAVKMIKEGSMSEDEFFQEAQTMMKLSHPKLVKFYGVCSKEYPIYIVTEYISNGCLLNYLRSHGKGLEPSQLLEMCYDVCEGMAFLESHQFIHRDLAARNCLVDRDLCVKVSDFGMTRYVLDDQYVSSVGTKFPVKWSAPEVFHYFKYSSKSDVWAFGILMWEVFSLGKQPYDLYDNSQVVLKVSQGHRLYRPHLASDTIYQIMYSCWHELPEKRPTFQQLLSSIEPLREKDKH

[2] = molecular target: T2, FGFR1 (Homo sapiens, UniProt P11362)
T2 construct: specificity data for proteins generated from a library of eighteen full-length clones; host or cells: rabbit reticulocyte lysate, TnT coupled transcription/translation

[3] = molecular target: T3, SRC (Mus musculus, UniProt P05480)
T3 construct: specificity data for proteins generated from a library of eighteen full-length clones; host or cells: rabbit reticulocyte lysate, TnT coupled transcription/translation

[4] = molecular target: T4, SYK (Homo sapiens, UniProt P43405)
T4 construct: autophosphorylation activity from full-length clones Spleen Tyrosine Kinase (SYK) and Eph receptor-A7 (EphA7); host or cells: rabbit reticulocyte lysate, TnT coupled in vitro transcription/translation (cell-free)

[5] = molecular target: T5, Tek (Mus musculus, UniProt Q02858)
T5 construct: specificity data for proteins generated from a library of eighteen full-length clones; host or cells: rabbit reticulocyte lysate, TnT coupled in vitro transcription/translation (cell-free)
T5 sequence (Q02858 23-1122): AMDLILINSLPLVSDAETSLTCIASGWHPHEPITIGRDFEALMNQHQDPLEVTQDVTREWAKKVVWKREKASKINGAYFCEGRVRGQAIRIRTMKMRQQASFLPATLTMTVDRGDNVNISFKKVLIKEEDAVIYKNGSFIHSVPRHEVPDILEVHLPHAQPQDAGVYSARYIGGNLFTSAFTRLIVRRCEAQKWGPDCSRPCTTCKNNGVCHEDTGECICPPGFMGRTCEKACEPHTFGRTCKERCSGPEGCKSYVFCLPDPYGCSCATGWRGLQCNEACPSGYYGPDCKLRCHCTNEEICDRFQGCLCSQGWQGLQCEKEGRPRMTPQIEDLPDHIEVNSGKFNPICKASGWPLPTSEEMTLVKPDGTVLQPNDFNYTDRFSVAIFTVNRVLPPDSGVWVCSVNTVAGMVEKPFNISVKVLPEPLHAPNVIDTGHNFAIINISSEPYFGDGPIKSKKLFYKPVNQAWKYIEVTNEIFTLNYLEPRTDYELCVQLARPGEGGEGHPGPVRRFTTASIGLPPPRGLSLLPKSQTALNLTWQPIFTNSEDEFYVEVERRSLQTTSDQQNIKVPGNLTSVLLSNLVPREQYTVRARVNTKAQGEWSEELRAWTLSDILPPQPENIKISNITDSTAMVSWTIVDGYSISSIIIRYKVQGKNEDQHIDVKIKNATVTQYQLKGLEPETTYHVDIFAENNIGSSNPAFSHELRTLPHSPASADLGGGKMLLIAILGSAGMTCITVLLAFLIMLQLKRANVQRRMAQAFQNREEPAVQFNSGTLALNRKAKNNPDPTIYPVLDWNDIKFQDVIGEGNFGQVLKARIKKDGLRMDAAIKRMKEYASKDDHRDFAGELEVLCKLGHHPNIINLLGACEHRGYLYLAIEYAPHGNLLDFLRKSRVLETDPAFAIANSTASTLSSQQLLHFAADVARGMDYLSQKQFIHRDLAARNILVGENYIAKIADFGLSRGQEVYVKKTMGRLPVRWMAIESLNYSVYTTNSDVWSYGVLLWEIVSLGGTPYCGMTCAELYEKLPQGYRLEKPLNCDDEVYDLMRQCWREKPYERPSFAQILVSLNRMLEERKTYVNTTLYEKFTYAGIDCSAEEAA

T2 sequence (P11362 22-822): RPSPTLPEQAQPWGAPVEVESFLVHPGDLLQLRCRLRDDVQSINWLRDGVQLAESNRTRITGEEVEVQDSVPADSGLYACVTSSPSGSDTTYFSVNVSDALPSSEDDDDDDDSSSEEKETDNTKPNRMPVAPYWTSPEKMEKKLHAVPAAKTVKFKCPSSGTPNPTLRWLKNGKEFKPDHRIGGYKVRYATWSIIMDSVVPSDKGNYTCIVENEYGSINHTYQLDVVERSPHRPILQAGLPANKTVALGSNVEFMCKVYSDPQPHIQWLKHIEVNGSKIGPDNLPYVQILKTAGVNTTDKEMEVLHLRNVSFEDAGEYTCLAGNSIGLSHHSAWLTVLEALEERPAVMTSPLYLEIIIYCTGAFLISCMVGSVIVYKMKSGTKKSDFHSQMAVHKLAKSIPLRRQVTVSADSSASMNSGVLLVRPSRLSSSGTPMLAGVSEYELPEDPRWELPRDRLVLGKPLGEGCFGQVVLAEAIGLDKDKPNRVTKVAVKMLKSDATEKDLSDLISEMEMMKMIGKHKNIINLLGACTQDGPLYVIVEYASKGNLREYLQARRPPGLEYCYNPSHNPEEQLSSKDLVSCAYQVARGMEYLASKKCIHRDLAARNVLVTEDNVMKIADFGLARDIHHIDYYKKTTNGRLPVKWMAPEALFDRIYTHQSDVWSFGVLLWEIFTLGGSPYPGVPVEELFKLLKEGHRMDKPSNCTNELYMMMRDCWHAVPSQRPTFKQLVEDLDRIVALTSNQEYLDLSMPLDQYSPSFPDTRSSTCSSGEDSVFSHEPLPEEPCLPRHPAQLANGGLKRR

| Compound | Inhibition specificity towards Autophosphorylation at 10X IC50, BMX [1] | Inhibition specificity towards Autophosphorylation at 10X IC50, FGFR1 [2] | Inhibition specificity towards Autophosphorylation at 10X IC50, Src [3] | Inhibition specificity towards Autophosphorylation at 10X IC50, SYK [4] | Inhibition specificity towards Autophosphorylation at 10X IC50, Tek [5] |
| --- | --- | --- | --- | --- | --- |
| COC(=O)c1ccc(NCc2cc(O)ccc2O)cc1 [AG-957] | L (low inhibition (“L”=between 50–75% of the activity remaining)) | L (low inhibition (“L”=between 50–75% of the activity remaining)) | L (low inhibition (“L”=between 50–75% of the activity remaining)) | L (low inhibition (“L”=between 50–75% of the activity remaining)) | M (medium inhibition (“M”=between 25 to 50% of the activity remaining)) |
| CC(C)(C)c1cc(C=C(C#N)C#N)cc(Br)c1O [AG-1024] |  |  |  |  | M (medium inhibition (“M”=between 25 to 50% of the activity remaining)) |
| Cc1cc2ncc(-c3ccc(O)c(O)c3)nc2cc1C [AG-1433] | H (high inhibition (“H”=less than 25% of the activity remaining)) | H (high inhibition (“H”=less than 25% of the activity remaining)) | H (high inhibition (“H”=less than 25% of the activity remaining)) | H (high inhibition (“H”=less than 25% of the activity remaining)) | H (high inhibition (“H”=less than 25% of the activity remaining)) |
| COc1c(C=O)c(O)cc2c1C(=O)c1ccccc1C2=O [Damnacanthal] | H (high inhibition (“H”=less than 25% of the activity remaining)) | M (medium inhibition (“M”=between 25 to 50% of the activity remaining)) | H (high inhibition (“H”=less than 25% of the activity remaining)) | M (medium inhibition (“M”=between 25 to 50% of the activity remaining)) | H (high inhibition (“H”=less than 25% of the activity remaining)) |
| Cc1ccc(-c2nn(C(C)(C)C)c3ncnc(N)c23)cc1 [PP1] |  |  | L (low inhibition (“L”=between 50–75% of the activity remaining)) |  |  |
| Erbstatin analog | L (low inhibition (“L”=between 50–75% of the activity remaining)) |  | L (low inhibition (“L”=between 50–75% of the activity remaining)) | L (low inhibition (“L”=between 50–75% of the activity remaining)) | L (low inhibition (“L”=between 50–75% of the activity remaining)) |
